Patent US20240199649A1 (Biosplice Therapeutics, Inc., priority 2022, published 2024)

Biological target: recombinant DYRK1A kinase (Homo sapiens (Human), UniProt Q13627)
Assay: DYRK1A kinase assay (Ser/Thr 18 peptide Z-lyte FRET assay)
Assay type: biochemical
Conditions: DYRK1A 0.25 μg/mL, ATP 15 μM, Ser/Thr peptide 18 4 μM; one hour at room temperature; 11-point dose-response, duplicate
Outline: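 Z-lyte FRET assay on Ser/Thr 18 peptide, kinase activity read as coumarin/fluorescein emission ratio; compounds incubated 1 h at room temperature, then development reagent 1 h, in duplicate. Phosphorylated and unphosphorylated peptide served as controls; IC50 by non-linear regression of dose-response curves.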

IC50 [nM] | SMILES
5 | CCN1CC[C@@H](Nc2nc(NC)c3c(-c4ccc5nc(C)n(CC(F)F)c5n4)ccn3n2)[C@@H](F)C1 [Compound 372, 5-(3-(2,2-Difluoroethyl)-2-methyl-3H-imidazo[4,5-b]pyridin-5-yl)-N^2-((3S,4R)-1-ethyl-3-fluoropiperidin-4-yl)-N^4-methylpyrrolo[2,1-f][1,2,4]triazine-2,4-diamine]
3.8 | CCN1CC[C@H](Nc2nc(NC)c3c(-c4ccc5nc(C)n(CC(F)F)c5n4)ccn3n2)[C@H](F)C1 [Compound 373, 5-(3-(2,2-Difluoroethyl)-2-methyl-3H-imidazo[4,5-b]pyridin-5-yl)-N^2-((3R,4S)-1-ethyl-3-fluoropiperidin-4-yl)-N^4-methylpyrrolo[2,1-f][1,2,4]triazine-2,4-diamine]
3.6 | CNc1nc(N[C@@H]2CCN(C3CC3)C[C@@H]2F)nn2ccc(-c3ccc4nc(C)n(CC(F)F)c4n3)c12 [Compound 377, N^2-((3S,4R)-1-Cyclopropyl-3-fluoropiperidin-4-yl)-5-(3-(2,2-difluoroethyl)-2-methyl-3H-imidazo[4,5-b]pyridin-5-yl)-N^4-methylpyrrolo[2,1-f][1,2,4]triazine-2,4-diamine]
4.1 | CNc1nc(N[C@H]2CCN(C3CC3)C[C@H]2F)nn2ccc(-c3ccc4nc(C)n(CC(F)F)c4n3)c12 [Compound 378, N^2-((3R,4S)-1-Cyclopropyl-3-fluoropiperidin-4-yl)-5-(3-(2,2-difluoroethyl)-2-methyl-3H-imidazo[4,5-b]pyridin-5-yl)-N^4-methylpyrrolo[2,1-f][1,2,4]triazine-2,4-diamine]
3.2 | CNc1nc(N[C@@H]2CCN(C3CC(F)(F)C3)C[C@@H]2F)nn2ccc(-c3ccc4nc(C)n(CC(F)F)c4n3)c12 [Compound 380, N^2-((3S,4R)-1-(3,3-Difluorocyclobutyl)-3-fluoropiperidin-4-yl)-5-(3-(2,2-difluoroethyl)-2-methyl-3H-imidazo[4,5-b]pyridin-5-yl)-N^4-methylpyrrolo[2,1-f][1,2,4]triazine-2,4-diamine]
2.2 | CNc1nc(N[C@H]2CCN(C3CC(F)(F)C3)C[C@H]2F)nn2ccc(-c3ccc4nc(C)n(CC(F)F)c4n3)c12 [Compound 381, N^2-((3R,4S)-1-(3,3-Difluorocyclobutyl)-3-fluoropiperidin-4-yl)-5-(3-(2,2-difluoroethyl)-2-methyl-3H-imidazo[4,5-b]pyridin-5-yl)-N^4-methylpyrrolo[2,1-f][1,2,4]triazine-2,4-diamine]
3.3 | [2H]C([2H])([2H])Nc1nc(N[C@@H]2CCN(C)CC2(F)F)nn2ccc(-c3ccc4nc(C)n(CC(F)F)c4n3)c12 [Compound 382, (R)—N^2-(3,3-Difluoro-1-methylpiperidin-4-yl)-5-(3-(2,2-difluoroethyl)-2-methyl-3H-imidazo[4,5-b]pyridin-5-yl)-N^4-(methyl-d3)pyrrolo[2,1-f][1,2,4]triazine-2,4-diamine]
3.5 | CCN1CC[C@@H](Nc2nc(NC)c3c(-c4ccc5nc(C)n(CC(F)F)c5n4)ccn3n2)C(F)(F)C1 [Compound 383, (R)-5-(3-(2,2-Difluoroethyl)-2-methyl-3H-imidazo[4,5-b]pyridin-5-yl)-N^2-(1-ethyl-3,3-difluoropiperidin-4-yl)-N^4-methylpyrrolo[2,1-f][1,2,4]triazine-2,4-diamine]
2 | CCN1CC[C@H](Nc2nc(NC)c3c(-c4ccc5nc(C)n(CC(F)F)c5n4)ccn3n2)C(F)(F)C1 [Compound 384, (S)-5-(3-(2,2-Difluoroethyl)-2-methyl-3H-imidazo[4,5-b]pyridin-5-yl)-N^2-(1-ethyl-3,3-difluoropiperidin-4-yl)-N^4-methylpyrrolo[2,1-f][1,2,4]triazine-2,4-diamine]
4.6 | [2H]C([2H])([2H])Nc1nc(N[C@@H]2CCN(CC)CC2(F)F)nn2ccc(-c3ccc4nc(C)n(CC(F)F)c4n3)c12 [Compound 385, (R)-5-(3-(2,2-Difluoroethyl)-2-methyl-3H-imidazo[4,5-b]pyridin-5-yl)-N^2-(1-ethyl-3,3-difluoropiperidin-4-yl)-N^4-(methyl-d3)pyrrolo[2,1-f][1,2,4]triazine-2,4-diamine]
4.6 | CNc1nc(N[C@@H]2CCN(C3CC3)CC2(F)F)nn2ccc(-c3ccc4nc(C)n(CC(F)F)c4n3)c12 [Compound 386, (R)—N^2-(1-Cyclopropyl-3,3-difluoropiperidin-4-yl)-5-(3-(2,2-difluoroethyl)-2-methyl-3H-imidazo[4,5-b]pyridin-5-yl)-N^4-methylpyrrolo[2,1-f][1,2,4]triazine-2,4-diamine]
12.8 | CNc1nc(N[C@H]2CCN(C3CC3)CC2(F)F)nn2ccc(-c3ccc4nc(C)n(CC(F)F)c4n3)c12 [Compound 387, (S)—N^2-(1-Cyclopropyl-3,3-difluoropiperidin-4-yl)-5-(3-(2,2-difluoroethyl)-2-methyl-3H-imidazo[4,5-b]pyridin-5-yl)-N^4-methylpyrrolo[2,1-f][1,2,4]triazine-2,4-diamine]
4.7 | [2H]C([2H])([2H])Nc1nc(N[C@@H]2CCN(C3COC3)CC2(F)F)nn2ccc(-c3ccc4nc(C)n(CC(F)F)c4n3)c12 [Compound 388, (R)—N^2-(3,3-Difluoro-1-(oxetan-3-yl)piperidin-4-yl)-5-(3-(2,2-difluoroethyl)-2-methyl-3H-imidazo[4,5-b]pyridin-5-yl)-N^4-(methyl-d3)pyrrolo[2,1-f][1,2,4]triazine-2,4-diamine]
1.8 | CNc1nc(NC2CCC3(CC2)OCCO3)nn2ccc(-c3ccc4nc(C)n(CC(F)F)c4n3)c12 [Compound 389, 5-(3-(2,2-Difluoroethyl)-2-methyl-3H-imidazo[4,5-b]pyridin-5-yl)-N^4-methyl-N^2-(1,4-dioxaspiro[4.5]decan-8-yl)pyrrolo[2,1-f][1,2,4]triazine-2,4-diamine]
0.7 | CNc1nc(N[C@H]2CC[C@@](C)(O)CC2)nn2ccc(-c3ccc4nc(C)n(CC(F)(F)F)c4n3)c12 [Compound 441, (1s,4s)-1-Methyl-4-((5-(2-methyl-3-(2,2,2-trifluoroethyl)-3H-imidazo[4,5-b]pyridin-5-yl)-4-(methylamino)pyrrolo[2,1-f][1,2,4]triazin-2-yl)amino)cyclohexan-1-ol]
1.4 | CNc1nc(N[C@H]2CC[C@](C)(O)CC2)nn2ccc(-c3ccc4nnn(CC(F)F)c4n3)c12 [Compound 465, (1r,4r)-4-((5-(3-(2,2-Difluoroethyl)-3H-[1,2,3]triazolo[4,5-b]pyridin-5-yl)-4-(methylamino)pyrrolo[2,1-f][1,2,4]triazin-2-yl)amino)-1-methylcyclohexan-1-ol]
1.3 | CNc1nc(N[C@H]2CCN(C3COC3)C[C@H]2F)nn2ccc(-c3ccc4nnn(CC(F)F)c4n3)c12 [Compound 474, 5-(3-(2,2-Difluoroethyl)-3H-[1,2,3]triazolo[4,5-b]pyridin-5-yl)-N^2-((3R,4S)-3-fluoro-1-(oxetan-3-yl)piperidin-4-yl)-N^4-methylpyrrolo[2,1-f][1,2,4]triazine-2,4-diamine]
0.6 | CNc1nc(N[C@@H]2CCN(C)CC2(F)F)nn2ccc(-c3ccc4nnn(CC(F)F)c4n3)c12 [Compound 479, (R)—N^2-(3,3-Difluoro-1-methylpiperidin-4-yl)-5-(3-(2,2-difluoroethyl)-3H-[1,2,3]triazolo[4,5-b]pyridin-5-yl)-N4-methylpyrrolo[2,1-f][1,2,4]triazine-2,4-diamine]
1.3 | CNc1nc(N[C@@H]2CCN(C3COC3)CC2(F)F)nn2ccc(-c3ccc4nnn(CC(F)F)c4n3)c12 [Compound 480, (R)—N^2-(3,3-Difluoro-1-(oxetan-3-yl)piperidin-4-yl)-5-(3-(2,2-difluoroethyl)-3H-[1,2,3]triazolo[4,5-b]pyridin-5-yl)-N^4-methylpyrrolo[2,1-f][1,2,4]triazine-2,4-diamine]
3.1 | CCNc1nc(N[C@@H]2CCNCC2(F)F)nn2ccc(-c3ccc4nc(C)n(CC(F)F)c4n3)c12 [Compound 482, (R)-5-(3-(2,2-Difluoroethyl)-2-methyl-3H-imidazo[4,5-b]pyridin-5-yl)-N^2-(3,3-difluoropiperidin-4-yl)-N^4-ethylpyrrolo[2,1-f][1,2,4]triazine-2,4-diamine]
3.6 | CCNc1nc(N[C@@H]2CCN(C)CC2(F)F)nn2ccc(-c3ccc4nc(C)n(CC(F)F)c4n3)c12 [Compound 483, (R)—N^2-(3,3-difluoro-1-methylpiperidin-4-yl)-5-(3-(2,2-difluoroethyl)-2-methyl-3H-imidazo[4,5-b]pyridin-5-yl)-N^4-ethylpyrrolo[2,1-f][1,2,4]triazine-2,4-diamine]
6.4 | Cc1nc2ccc(-c3ccn4nc(N[C@@H]5CCNCC5(F)F)nc(NC(C)C)c34)nc2n1CC(F)F [Compound 484, (R)-5-(3-(2,2-Difluoroethyl)-2-methyl-3H-imidazo[4,5-b]pyridin-5-yl)-N^2-(3,3-difluoropiperidin-4-yl)-N^4-isopropylpyrrolo[2,1-f][1,2,4]triazine-2,4-diamine]

SMILES | IC50 [nM]
CNc1nc(N[C@@H]2CCN(CCF)C[C@@H]2F)nn2ccc(-c3ccc4nc(C)n(CC(F)F)c4n3)c12 [Compound 374, 5-(3-(2,2-Difluoroethyl)-2-methyl-3H-imidazo[4,5-b]pyridin-5-yl)-N^2-((3S,4R)-3-fluoro-1-(2-fluoroethyl)piperidin-4-yl)-N^4-methylpyrrolo[2,1-f][1,2,4]triazine-2,4-diamine] | 2.2
CNc1nc(N[C@H]2CCN(CCF)C[C@H]2F)nn2ccc(-c3ccc4nc(C)n(CC(F)F)c4n3)c12 [Compound 375, 5-(3-(2,2-Difluoroethyl)-2-methyl-3H-imidazo[4,5-b]pyridin-5-yl)-N^2-((3R,4S)-3-fluoro-1-(2-fluoroethyl)piperidin-4-yl)-N^4-methylpyrrolo[2,1-f][1,2,4]triazine-2,4-diamine] | 0.6
